Assay results reported in ChEMBL document CHEMBL1135076, “Leishmanicidal activity of some aliphatic diamines and amino-alcohols” (Bioorg Med Chem Lett, 2002).

Assays:
Format in all cases: functional, organism-based
[1] = test system: Leishmania braziliensis; assay: In vitro for leishmanicidal activity against Leishmania brasiliensis (2903) at the concentration of 10 ug/mL.
[2] = test system: Leishmania braziliensis; assay: Tested in vitro for leishmanicidal activity against Leishmania brasiliensis (2903) at the concentration of 50 ug/mL;+ indicates Less than 70% lysis of parasites
[3] = test system: Leishmania donovani; assay: Tested in vitro for leishmanicidal activity against Leishmania donovani (PP75) at the concentration of 10 ug/mL
[4] = test system: Leishmania donovani; assay: In vitro for leishmanicidal activity against Leishmania donovani (PP75) at the concentration of 100 ug/mL.
[5] = test system: Leishmania donovani; assay: In vitro for leishmanicidal activity against Leishmania donovani (PP75) at the concentration of 25 ug/mL.
[6] = test system: Leishmania donovani; assay: Tested in vitro for leishmanicidal activity against Leishmania donovani (PP75) at the concentration of 50 ug/mL;+ indicates Less than 70% lysis of parasites
[7] = test system: Leishmania amazonensis; assay: In vitro for leishmanicidal activity against Leishmania amazonensis (PH8) at the concentration of 100 ug/mL.
[8] = test system: Leishmania amazonensis; assay: In vitro for leishmanicidal activity against Leishmania amazonensis (PH8) at 25 ug/mL; No lysis of parasites.
[9] = test system: Leishmania amazonensis; assay: Tested in vitro for leishmanicidal activity against Leishmania amazonensis (PH8) at the concentration of 50 ug/mL; + indicates less than 70% lysis of parasites
[10] = test system: Leishmania braziliensis; assay: Tested in vitro for leishmanicidal activity against Leishmania brasiliensis (2903) at the concentration of 100 ug/mL;++ indicates 80-90% lysis of parasites
[11] = test system: Leishmania braziliensis; assay: In vitro for leishmanicidal activity against Leishmania brasiliensis (2903) at the concentration of 25 ug/mL.
[12] = test system: Leishmania amazonensis; assay: In vitro for leishmanicidal activity against Leishmania amazonensis (PH8) at the concentration of 10 ug/mL.
[13] = test system: Leishmania donovani; assay: Tested in vitro for leishmanicidal activity against Leishmania donovani (PP75) at the concentration of 50 ug/mL;++ indicates 80-90% lysis of parasites
[14] = test system: Leishmania braziliensis; assay: Tested in vitro for leishmanicidal activity against Leishmania brasiliensis (2903) at the concentration of 50 ug/mL;++ indicates 80-90% lysis of parasites
[15] = test system: Leishmania donovani; assay: Tested in vitro for leishmanicidal activity against Leishmania donovani (PP75) at the concentration of 25 ug/mL;+ indicates Less than 70% lysis of parasites
[16] = test system: Leishmania amazonensis; assay: Tested in vitro for leishmanicidal activity against Leishmania amazonensis (PH8) at the concentration of 25 ug/mL; + indicates less than 70% lysis of parasites
[17] = test system: Leishmania amazonensis; assay: Tested in vitro for leishmanicidal activity against Leishmania amazonensis (PH8) at the concentration of 50 ug/mL; ++ indicates 80-90% lysis of parasites
[18] = test system: Leishmania braziliensis; assay: In vitro for leishmanicidal activity against Leishmania brasiliensis (2903) at the concentration of 100 ug/mL.
[19] = test system: Leishmania braziliensis; assay: Tested in vitro for leishmanicidal activity against Leishmania brasiliensis (2903) at the concentration of 25 ug/mL;+ indicates Less than 70% lysis of parasites
[20] = test system: Leishmania braziliensis; assay: Tested in vitro for leishmanicidal activity against Leishmania brasiliensis (2903) at the concentration of 10 ug/mL;++ indicates 80-90% lysis of parasites
[21] = test system: Leishmania donovani; assay: Tested in vitro for leishmanicidal activity against Leishmania donovani (PP75) at the concentration of 10 ug/mL;++ indicates 80-90% lysis of parasites
[22] = test system: Leishmania donovani; assay: In vitro for leishmanicidal activity against Leishmania donovani (PP75) at the concentration of 50 ug/mL.
[23] = test system: Leishmania amazonensis; assay: In vitro for leishmanicidal activity against Leishmania amazonensis (PH8) at the concentration of 50 ug/mL.
[24] = test system: Leishmania amazonensis; assay: Tested in vitro for leishmanicidal activity against Leishmania amazonensis (PH8) at the concentration of 10 ug/mL; ++ indicates 80-90% lysis of parasites
[25] = test system: Leishmania braziliensis; assay: Tested in vitro for leishmanicidal activity against Leishmania brasiliensis (2903) at the concentration of 10 ug/mL;+ indicates Less than 70% lysis of parasites
[26] = test system: Leishmania braziliensis; assay: Tested in vitro for leishmanicidal activity against Leishmania brasiliensis (2903) at the concentration of 25 ug/mL;++ indicates 80-90% lysis of parasites
[27] = test system: Leishmania donovani; assay: In vitro for leishmanicidal activity against Leishmania donovani (PP75) at the concentration of 10 ug/mL.
[28] = test system: Leishmania donovani; assay: Tested in vitro for leishmanicidal activity against Leishmania donovani (PP75) at the concentration of 25 ug/mL;++ indicates 80-90% lysis of parasites
[29] = test system: Leishmania amazonensis; assay: Tested in vitro for leishmanicidal activity against Leishmania amazonensis (PH8) at the concentration of 25 ug/mL; ++ indicates 80-90% lysis of parasites
[30] = test system: Leishmania braziliensis; assay: Tested in vitro for leishmanicidal activity against Leishmania brasiliensis (2903) at the concentration of 100 ug/mL; + indicates Less than 70% lysis of parasites
[31] = test system: Leishmania braziliensis; assay: In vitro for leishmanicidal activity against Leishmania brasiliensis (2903) at the concentration of 50 ug/mL.
[32] = test system: Leishmania donovani; assay: Tested in vitro for leishmanicidal activity against Leishmania donovani (PP75) at the concentration of 100 ug/mL;+ indicates Less than 70% lysis of parasites
[33] = test system: Leishmania amazonensis; assay: Tested in vitro for leishmanicidal activity against Leishmania amazonensis (PH8) at the concentration of 100 ug/mL; + indicates less than 70% lysis of parasites
[34] = test system: Leishmania amazonensis; assay: Tested in vitro for leishmanicidal activity against Leishmania amazonensis (PH8) at the concentration of 100 ug/mL; + indicates Less than 70% lysis of parasites

## CCCCCCCCCCCCCCC(N)CNCC(=O)O (configuration not stated)
[1]
  Activity: 80-90% lysis of parasites
[2]
  Activity: 80-90% lysis of parasites
[3]
  Activity: 80-90% lysis of parasites
[4]
  Activity: +
[5]
  Activity: 80-90% lysis of parasites
[6]
  Activity: 80-90% lysis of parasites
[7]
  Activity: 80-90% lysis of parasites
[8]
  Activity: 80-90% lysis of parasites
[9]
  Activity: 80-90% lysis of parasites
[10]
  Activity: 80-90% lysis of parasites
[11]
  Activity: 80-90% lysis of parasites
[12]
  Activity: 80-90% lysis of parasites

## CCCCCCCCCCCCCCC(N)CN(CC(=O)O)CC(=O)O (configuration not stated)
[13]
  Activity: 80-90% lysis of parasites
[1]
  Activity: 80-90% lysis of parasites
[14]
  Activity: 80-90% lysis of parasites
[3]
  Activity: 80-90% lysis of parasites
[4]
  Activity: +
[15]
  Activity: 80-90% lysis of parasites
[7]
  Activity: +
[16]
  Activity: 80-90% lysis of parasites
[17]
  Activity: 80-90% lysis of parasites
[18]
  Activity: +
[19]
  Activity: 80-90% lysis of parasites
[12]
  Activity: 80-90% lysis of parasites

## CCCCCCCCCCCCCCC(CN(CC)CC)NC(=O)OC(C)(C)C (configuration not stated)
[20]
  Activity: 80-90% lysis of parasites
[21]
  Activity: 80-90% lysis of parasites
[4]
  Activity: +
[22]
  Activity: +
[7]
  Activity: +
[23]
  Activity: +
[18]
  Activity: +
[24]
  Activity: 80-90% lysis of parasites

## CCCCCCCCCCCCCCC(N)CNC(=O)CCCC(=O)O (configuration not stated)
[25]
  Activity: 80-90% lysis of parasites
[26]
  Activity: 80-90% lysis of parasites
[27]
  Activity: 80-90% lysis of parasites
[4]
  Activity: +
[28]
  Activity: 80-90% lysis of parasites
[22]
  Activity: +
[7]
  Activity: +
[29]
  Activity: 80-90% lysis of parasites
[23]
  Activity: +
[18]
  Activity: +
[12]
  Activity: 80-90% lysis of parasites

## CCCCCCCCCCCCCCC(=O)NC(CO)CCCCCCCCCCCCCC (configuration not stated)
[1]
  Activity: Less than 70% lysis of parasites
[30]
  Activity: Less than 70% lysis of parasites
[31]
  Activity: Less than 70% lysis of parasites
[3]
  Activity: Less than 70% lysis of parasites
[32]
  Activity: Less than 70% lysis of parasites
[5]
  Activity: Less than 70% lysis of parasites
[22]
  Activity: Less than 70% lysis of parasites
[33]
  Activity: Less than 70% lysis of parasites
[8]
  Activity: Less than 70% lysis of parasites
[23]
  Activity: Less than 70% lysis of parasites
[11]
  Activity: Less than 70% lysis of parasites
[12]
  Activity: Less than 70% lysis of parasites

## CCCCCCCCCCCCCCC(=O)NC(CCCCCCCCCCCCCC)COC(=O)CCCCCCCCCCCCCC (configuration not stated)
[1]
  Activity: Less than 70% lysis of parasites
[30]
  Activity: Less than 70% lysis of parasites
[31]
  Activity: Less than 70% lysis of parasites
[3]
  Activity: Less than 70% lysis of parasites
[32]
  Activity: Less than 70% lysis of parasites
[5]
  Activity: Less than 70% lysis of parasites
[22]
  Activity: Less than 70% lysis of parasites
[33]
  Activity: Less than 70% lysis of parasites
[8]
  Activity: Less than 70% lysis of parasites
[23]
  Activity: Less than 70% lysis of parasites
[11]
  Activity: Less than 70% lysis of parasites
[12]
  Activity: Less than 70% lysis of parasites

## CCCCCCCCCCCCCCC(CNCC)NC(=O)OC(C)(C)C (configuration not stated)
[20]
  Activity: 80-90% lysis of parasites
[27]
  Activity: 80-90% lysis of parasites
[4]
  Activity: 80-90% lysis of parasites
[15]
  Activity: 80-90% lysis of parasites
[22]
  Activity: +
[7]
  Activity: +
[16]
  Activity: 80-90% lysis of parasites
[23]
  Activity: +
[18]
  Activity: +
[12]
  Activity: 80-90% lysis of parasites

## CCCCCCCCCCCCCCC(COCc1ccccc1)NC(=O)OC(C)(C)C (configuration not stated)
[1]
  Activity: Less than 70% lysis of parasites
[30]
  Activity: Less than 70% lysis of parasites
[31]
  Activity: Less than 70% lysis of parasites
[3]
  Activity: Less than 70% lysis of parasites
[32]
  Activity: Less than 70% lysis of parasites
[5]
  Activity: Less than 70% lysis of parasites
[22]
  Activity: Less than 70% lysis of parasites
[34]
  Activity: Less than 70% lysis of parasites
[8]
  Activity: Less than 70% lysis of parasites
[23]
  Activity: Less than 70% lysis of parasites
[11]
  Activity: Less than 70% lysis of parasites
[12]
  Activity: Less than 70% lysis of parasites

## CCCCCCCCCCCCCCC(N)CNCC (configuration not stated)
[13]
  Activity: 80-90% lysis of parasites
[25]
  Activity: 80-90% lysis of parasites
[14]
  Activity: 80-90% lysis of parasites
[27]
  Activity: 80-90% lysis of parasites
[4]
  Activity: +
[15]
  Activity: 80-90% lysis of parasites
[7]
  Activity: +
[16]
  Activity: 80-90% lysis of parasites
[17]
  Activity: 80-90% lysis of parasites
[18]
  Activity: +
[19]
  Activity: 80-90% lysis of parasites
[12]
  Activity: 80-90% lysis of parasites

## CCCCCCCCCCCCCCC(N)COCc1ccccc1 (configuration not stated)
[1]
  Activity: Less than 70% lysis of parasites
[30]
  Activity: Less than 70% lysis of parasites
[31]
  Activity: Less than 70% lysis of parasites
[3]
  Activity: Less than 70% lysis of parasites
[32]
  Activity: Less than 70% lysis of parasites
[5]
  Activity: Less than 70% lysis of parasites
[22]
  Activity: Less than 70% lysis of parasites
[34]
  Activity: Less than 70% lysis of parasites
[8]
  Activity: Less than 70% lysis of parasites
[23]
  Activity: Less than 70% lysis of parasites
[11]
  Activity: Less than 70% lysis of parasites
[12]
  Activity: Less than 70% lysis of parasites

## CCCCCCCCCCCCCCC(CN(CC(=O)OCC)CC(=O)OCC)NC(=O)OC(C)(C)C (configuration not stated)
[1]
  Activity: 80-90% lysis of parasites
[31]
  Activity: 80-90% lysis of parasites
[3]
  Activity: 80-90% lysis of parasites
[4]
  Activity: 80-90% lysis of parasites
[5]
  Activity: 80-90% lysis of parasites
[22]
  Activity: 80-90% lysis of parasites
[7]
  Activity: 80-90% lysis of parasites
[8]
  Activity: 80-90% lysis of parasites
[23]
  Activity: 80-90% lysis of parasites
[10]
  Activity: 80-90% lysis of parasites
[11]
  Activity: 80-90% lysis of parasites
[12]
  Activity: 80-90% lysis of parasites

## CCCCCCCCCCCCCCC(N)CNCC(=O)OCC (configuration not stated)
[25]
  Activity: Less than 70% lysis of parasites
[2]
  Activity: Less than 70% lysis of parasites
[27]
  Activity: Less than 70% lysis of parasites
[4]
  Activity: +
[15]
  Activity: Less than 70% lysis of parasites
[6]
  Activity: Less than 70% lysis of parasites
[7]
  Activity: +
[16]
  Activity: Less than 70% lysis of parasites
[9]
  Activity: Less than 70% lysis of parasites
[18]
  Activity: +
[19]
  Activity: Less than 70% lysis of parasites
[12]
  Activity: Less than 70% lysis of parasites
